Data on 21 molecules can be found in ChEMBL document CHEMBL1862790, “Optimisation of fenarimol series for the treatment of Chagas disease”.

Where “and” joins values, the source holds several entries; their conditions need not be identical. Identical values can stand only once. Bounds are passed on as bounds.

The nature of data set [1]: (§1) DNDI: Cytotoxicity against L-6 rat myoblasts from skeletal muscle cells. The settings on record: L6 rat skeletal muscle myoblast cells.
Another data set has as its system L6. The data set is described as §1. The settings on record: L6 rat skeletal muscle myoblast cells.
Data set [2] deals with Trypanosoma cruzi. Put plainly: microbe, parasite or virus in culture. The format is functional, organism-based, Tulahuen LacZ, Clone C4.
Data set [3] deals with Trypanosoma cruzi. Put plainly: microbe, parasite or virus in culture. The class given is functional, Tulahuen LacZ, Clone C4.
[4] abbreviates: Trypanosoma cruzi, Tulahuen LacZ, Clone C4.

For the molecule `OC(c1ccc(Cl)cc1)(c1cccnc1)c1ccccc1Cl` (stereo not drawn), the IC50 (usually the concentration at which inhibition is half-maximal) turned out to be 60000 nM in data set [1], 61300 nM in the data set with L6, 210 nM in the data set with Trypanosoma cruzi [2] and 270 nM in the data set on Trypanosoma cruzi [2] (setting [4]).

Take `O=C(Oc1ccccc1)N1CCN(C(c2cccnc2)c2ccc(Cl)cc2F)CC1` (stereo not drawn): the results for the IC50 in the data set with L6 and in the data set with Trypanosoma cruzi [2] (setting [4]) were 59100 nM and 4.5 nM, respectively. In the data set with Trypanosoma cruzi [3] (setting [4]), the IC90 (usually the point of the concentration-response curve where the effect stands at 90%) was 12 nM.

On to `CC(C)(C)C(=O)N1CCN(C(c2cccnc2)c2ccc(Cl)cc2F)CC1` (stereo not drawn), for which the concentration for half-maximal inhibition (IC50) in the data set with L6 was 60300 nM; with Trypanosoma cruzi [2] (setting [4]) it was 19 nM. This molecule also gave an IC90 in the data set on Trypanosoma cruzi [3] (setting [4]) of 88 nM.

`CC(C)(C)C(=O)N1CCN(C(c2cccnc2)c2ccc(C(F)(F)F)cc2F)CC1` (stereo not drawn): the results for the half-inhibitory concentration (IC50) with L6 and in the data set with Trypanosoma cruzi [2] (setting [4]) were 72900 nM and 23.5 nM, respectively. Also, in the data set on Trypanosoma cruzi [3] (setting [4]), the 90% effect level (IC90) was put at 68.5 nM.

Consider `O=C(Nc1ccc(Cl)cc1)N1CCN(C(c2cncnc2)c2ccc(Cl)cc2F)CC1` (stereo not drawn), for which the concentration for half-maximal inhibition (IC50) in the data set with L6 is 33600 nM; in the data set on Trypanosoma cruzi [2] (setting [4]) it was 10 nM. It took 30 nM to reach the 90% level in the data set on Trypanosoma cruzi [3] (setting [4]) (IC90).

`O=C(c1ccccc1)N1CCN(C(c2ccc(Cl)cc2)c2cccnc2)CC1` (stereo not drawn): the results for the IC50 in the data set with L6 and in the data set on Trypanosoma cruzi [2] (setting [4]) were 61400 nM and 68 nM, respectively. Moreover, the IC90 in the data set on Trypanosoma cruzi [3] (setting [4]) turned out to be 160 nM.

`O=C(Nc1ccccc1)N1CCN(C(c2ccc(Cl)cc2)c2cccnc2)CC1` (stereo not drawn): the IC50 with L6 came to 67200 nM; in the data set on Trypanosoma cruzi [2] (setting [4]), 9 nM. This molecule gave an IC90 in the data set with Trypanosoma cruzi [3] (setting [4]) of 34 nM.

Take `CC(C)CCON=C(Cc1cccnc1)c1ccc(Cl)cc1Cl`: the IC50 amounted to 61000 nM in data set [1] (IC50) and 58700 nM with L6.

Consider `O=C(Nc1ccccc1)N1CCN(C(c2cccnc2)c2ccc(Cl)cc2F)CC1` (stereo not drawn), for which the IC50 with L6 came to 45100 nM; with Trypanosoma cruzi [2] (setting [4]) it was 6.2 nM. The molecule further showed a concentration for an effect of 90% (IC90) with Trypanosoma cruzi [3] (setting [4]) of 24 nM.

`CC(C)c1ccc(NC(=O)N2CCN(C(c3cncnc3)c3ccc(Cl)cc3F)CC2)cc1` (stereo not drawn): the figures for the half-inhibitory concentration (IC50) in the data set with L6 and in the data set on Trypanosoma cruzi [2] (setting [4]) were 61900 nM and 6.5 nM, respectively. Also, the 90% effect concentration (IC90) in the data set on Trypanosoma cruzi [3] (setting [4]) came to 16 nM.

On to `Cc1noc(N2CCN(C(c3cccnc3)c3ccc(C(F)(F)F)cc3F)CC2)n1` (stereo not drawn), for which the results for the concentration for half-maximal inhibition (IC50) with L6 and in the data set with Trypanosoma cruzi [2] (setting [4]) were 51200 nM and 16.5 nM, respectively. Also, it took 33 nM to reach the 90% level with Trypanosoma cruzi [3] (setting [4]) (IC90).

Turning to `O=C(Nc1ccc(Cl)cc1)N1CCN(C(c2ccc(Cl)cc2)c2cncnc2)CC1` (stereo not drawn), the IC50 was determined as 58800 nM in the data set with L6 and 22 nM with Trypanosoma cruzi [2] (setting [4]). The 90% effect concentration (IC90) in the data set with Trypanosoma cruzi [3] (setting [4]) came out at 65 nM.

In the case of `OC(c1ccc(Cl)cc1)(c1cccnc1)c1cccs1` (stereo not drawn), the 50% inhibitory concentration (IC50) in data set [1] (IC50) is over 100000 nM; in the data set on L6, 67700 nM; in the data set on Trypanosoma cruzi [2], 17 nM; in the data set on Trypanosoma cruzi [2] (setting [4]), 13 nM. Also, the 90% effect concentration (IC90) in the data set with Trypanosoma cruzi [3] came to 99 nM; with Trypanosoma cruzi [3] (setting [4]), 108 nM.

For `CS(=O)(=O)N1CCN(C(c2cccnc2)c2ccc(C(F)(F)F)cc2F)CC1` (stereo not drawn), the results for the concentration for half-maximal inhibition (IC50) with L6 and in the data set on Trypanosoma cruzi [2] (setting [4]) were 76800 nM and 27.5 nM, respectively. In the data set on Trypanosoma cruzi [3] (setting [4]), this molecule had an IC90 of 82.5 nM.

On to `CON=C(Cc1cccnc1)c1ccc(Cl)cc1Cl`, for which the IC50 in data set [1] (IC50) is over 100000 nM; in the data set on L6, 81000 nM; in the data set with Trypanosoma cruzi [2], 210 nM and 470 nM and 294 nM.

`CC(C)(C)OC(=O)N1CCN(C(c2ccc(C(F)(F)F)cc2)c2cccnc2)CC1` (stereo not drawn): the results for the half-inhibitory concentration (IC50) with L6 and in the data set with Trypanosoma cruzi [2] (setting [4]) were 56200 nM and 17 nM, respectively. The same molecule had an IC90 with Trypanosoma cruzi [3] (setting [4]) of 54 nM.

For the molecule `O=C(Oc1ccccc1)N1CCN(C(c2ccc(Cl)cc2)c2cccnc2)CC1` (stereo not drawn), the concentration for half-maximal inhibition (IC50) was determined as 55700 nM in the data set on L6 and 8 nM in the data set on Trypanosoma cruzi [2] (setting [4]). For the same molecule, it took 32 nM to reach the 90% level with Trypanosoma cruzi [3] (setting [4]) (IC90).

With `CC(C)(C)C(=O)N1CCN(C(c2ccc(C(F)(F)F)cc2)c2cccnc2)CC1` (stereo not drawn), the figures for the IC50 in the data set with L6 and with Trypanosoma cruzi [2] (setting [4]) were 58600 nM and 30 nM, respectively. This molecule also registered a concentration for an effect of 90% (IC90) in the data set on Trypanosoma cruzi [3] (setting [4]) of 127 nM.

`O=S(=O)(C1CCCCC1)N1CCN(C(c2ccc(Cl)cc2)c2cccnc2)CC1` (stereo not drawn): the IC50 in the data set with L6 is 55800 nM; with Trypanosoma cruzi [2] (setting [4]) it was 10 nM. Besides, in the data set with Trypanosoma cruzi [3] (setting [4]), it took 35 nM to reach the 90% level (IC90).

For `Cc1ccc(C(O)(c2ccc(Cl)cc2)c2cncnc2)cc1` (stereo not drawn), the half-maximal inhibitory concentration (IC50) in data set [1] (IC50) is 79300 nM; in the data set with L6, 67400 nM; with Trypanosoma cruzi [2] it was 68 nM and 23.8 nM. Besides, the concentration for an effect of 90% (IC90) in the data set with Trypanosoma cruzi [3] was determined as 310 nM; with Trypanosoma cruzi [3] (setting [4]), 158 nM.

Consider `CC(C)c1ccc(S(=O)(=O)N2CCN(C(c3ccc(Cl)cc3)c3cccnc3)CC2)cc1` (stereo not drawn), for which the values for the half-inhibitory concentration (IC50) in the data set with L6 and with Trypanosoma cruzi [2] (setting [4]) were 80200 nM and 12 nM, respectively. In the data set with Trypanosoma cruzi [3] (setting [4]), this molecule came in with an IC90 of 57 nM.
